Results taken from patent US20070142457A1, “Crystalline forms of docetaxel and processes for their preparation” (priority 2005, published 2007).

Assay: solubility compared with docetaxel trihydrate
Format: physicochemical
Conditions: relative to docetaxel trihydrate; statement in words, no method or figures given

## CC(=O)O[C@@]12CO[C@@H]1C[C@H](O)[C@@]1(C)C(=O)[C@H](O)C3=C(C)[C@@H](OC(=O)[C@H](O)[C@@H](NC(=O)OC(C)(C)C)c4ccccc4)C[C@@](O)([C@@H](OC(=O)c4ccccc4)[C@H]21)C3(C)C [docetaxel polymorph of the invention, docetaxel]
  solubility: greater solubility than docetaxel trihydrate
